Test results as given in patent US20240335542A1, “NANOMATERIALS COMPRISING DISULFIDES” (Beam Therapeutics Inc., priority 2021, published 2024).

Columns and labels:
[1] = RNA encapsulation efficiency of LNPs by Ribogreen assay; type: physicochemical; details: LNP of 47.5% ionizable lipid: 40% cholesterol: 2.5% PEG-2000 DMG: 10% DPSC, N/P 4-8
Description: (§1) LNPs were prepared with 47.5% Ionizable Lipid (e.g., a compound provided herein): 40% cholesterol: 2.5% PEG-2000 DMG; and 10% DPSC and an N/P ratio range of 4-8. LNPs were formed by microfluidic mixing of the lipid and NA solutions using a Precision Nanosystems NanoAssemblr Spark or Benchtop series Instruments, according to the manufacturers protocol. A ratio of aqueous to organic solvent of approximately 2:1 or 3:1 was maintained during mixing using differential flow rates. After mixing, LNPs were collected, diluted in phosphate buffer saline (PBS) or Tris-buffered saline (TBS) (approximately 1:1 v/v). Further buffer exchange was conducted using dialysis in PBS or TBS at 4° C. for 4 to 24 hours against a 20 kDa filter. After this initial dialysis, each individual LNP preparation was characterized via dynamic light scattering (DLS) to measure the size (e.g., diameter) and polydispersity. LNPs falling within specific diameter and polydispersity ranges were pooled, and further dialyzed against PBS or TBS at 4° C. for 1 to 4 hours against a 100 kDa dialysis cassette. After the second dialysis, LNPs were sterile filtered using 0.22 μm filter and stored at 4° C. for further use.
RNA concentration and encapsulation efficiency were determined by Ribogreen assay (BioTek Synergy LX plate reader).

[2] = tested on: ALAS1 target site; experiment: In vivo base editing with LNP carrying adenine base editor mRNA and sgRNA, targeted deep sequencing; details: LNP with ABE mRNA + sgRNA, 0.15 mg/kg total RNA, tail vein, Balb/C mice, four to six days post-dose
Description: Exemplary LNP preparations were selected to determine each preparation's ability to perform base editing in a Balb/C mouse model as described herein.
Lipid nanoparticle components were dissolved in 100% ethanol at specified lipid component molar ratios. mRNA encoding an adenine base editor and a chemically-modified sgRNA was dissolved at a mass ratio of 1:1 in 50 mM citrate, pH 4.0, resulting in a concentration of NA cargo of approximately 0.1 mg/mL.
LNP preparations were formulated with molar ratios of 47.5% Ionizable Lipid: 40% Cholesterol: 2.5% PEG2000-DMG: 10% DSPC total lipid to NA mass ratio of 6 to 12. […]
A 3:1 ratio of aqueous to organic solvent was maintained during mixing using differential flow rates. […] After this initial dialysis, each individual LNP preparation was characterized via dynamic light scattering (DLS) to measure size and polydispersity. pKa of a subpopulation of LNP preparations was measured via TNS assay. […]
Age-matched mice were also used to administer vehicle (1×TBS) via tail vein injection as a control. […] Base editing was determined by performing targeted deep sequencing analysis at the ALAS1 target site using extracted genomic DNA. […] Library size and concentration was confirmed by Fragment Analyzer (Agilent) and analyzed for whole genome sequencing using an Illumina HiSeq.

[3] = LNP hydrodynamic diameter and polydispersity index by dynamic light scattering (DLS); type: physicochemical; details: LNP of 47.5% ionizable lipid: 40% cholesterol: 2.5% PEG-2000 DMG: 10% DPSC, N/P 4-8
Description: as §1
LNP hydrodynamic diameter and polydispersity index (PDI) were measured using high throughput dynamic light scattering (DLS) (Stunner, Unchained Labs). LNPs were diluted 1×TBS or PBS to an appropriate concentration and analyzed.

[4] = LNP biodistribution in mice, barcode fold above input (FAI) in tissues; type: in vivo; details: pooled LNP IV tail vein, 4 hours post-dose, fold above input of barcode
Description: Male and female mice aged approximately 8-12 weeks were used for studies described by the present Example. Each mouse was temporarily restrained and pooled LNP was administered IV via tail vein injection in up to five animals per experiment. Age-matched mice was also used to administer vehicle (1×TBS) via tail vein injection in up to three animals per experiment. Additional routes of administration can also be conducted including intracerebral ventricular (ICV), intracisterna manga (ICM), intrathecal (IT), intramuscular (IM), nebulization, intranasal (IN), subcutaneous (SC), intraarticular, and intradermal (ID). At 4 hours post-dose, tissues including liver, spleen, bone marrow, testes, gastrocnemius, quadricep, lung, heart, kidney, and pancreas may be collected for analysis.
RNA from tissues were extracted using the Reliaprep RNA extraction kit, and libraries were prepared using the RNAseq kit, and sequenced on either a MiSeq or NextSeg500.
To screen for preferential LNP delivery to a target tissues, the relative abundance of each barcode in one or more target tissues was measured and compared to the relative abundance of each barcode to its corresponding relative input abundance to determine fold above input (FAI) for each barcode. If the FAI of a barcode in a target tissue is above a threshold or above the FAI of a different LNP in the same tissue, the LNP can be identified as preferentially delivering to the target tissue.
The FAI is the normalized relative abundance of a barcode in a selected sample as compared to its frequency in the input. The FAI of a barcode indicates how a LNP's abundance changes relative to the rest of the LNP pool. The FAI value of the barcode was calculated by normalizing the relative abundance in the barcode sequence counts in the isolated samples to its relative abundance in the administration input. […] The FAI then indicates the performance of an LNP relative to the input LNP composition.

Row | SMILES | Mean Encapsulation Efficiency (%) [1] [%] | base editing observed in liver [2] [%] | Mean Diameter (nm) [3] [nm] | Mean PDI [3] | FAI (Liver) ([4]; liver) | FAI (Lung) ([4]; lung) | FAI (Spleen) ([4]; spleen)
1 | CC/C=C\CCCCOC(CCCC(=O)Oc1ccc(CC(=O)OCCC2CCN(CCSSCCN3CCC(CCOC(=O)Cc4ccc(OC(=O)CCCC(OCCCC/C=C\CC)OCCCC/C=C\CC)cc4)CC3)CC2)cc1)OCCCC/C=C\CC [7-8, (((((disulfanediylbis(ethane-2,1-diyl))bis(piperidine-1,4-diyl))bis(ethane-2,1-diyl))bis(oxy))bis(2-oxoethane-2,1-diyl))bis(4,1-phenylene) bis(5,5-bis(((Z)-oct-5-en-1-yl)oxy)pentanoate)] | 87.7 | 13.7 | 74.9 | 0.08 |  |  | 
2 | CC/C=C\CCCCOC(CCC(=O)Oc1ccc(CC(=O)OCCC2CCN(CCSSCCN3CCC(CCOC(=O)Cc4ccc(OC(=O)CCC(OCCCC/C=C\CC)OCCCC/C=C\CC)cc4)CC3)CC2)cc1)OCCCC/C=C\CC [7-9, (((((disulfanediylbis(ethane-2,1-diyl))bis(piperidine-1,4-diyl))bis(ethane-2,1-diyl))bis(oxy))bis(2-oxoethane-2,1-diyl))bis(4,1-phenylene) bis(4,4-bis(((Z)-oct-5-en-1-yl)oxy)butanoate)] | 88.2 |  | 72.1 | 0.09 |  |  | 
3 | CCCCC/C=C\C/C=C\CCCCCCCCC(CCCCCCCC/C=C\C/C=C\CCCCC)OC(=O)CCCN(C)C [MC3, (6Z,9Z,28Z,31Z)-heptatriaconta-6,9,28,31-tetraen-19-yl 4-(dimethylamino) butanoate] |  |  |  |  | 0.50 | 1.02 | 1.46
